Assay results published in the NIST ThermoML archive (doi:10.1016/j.tca.2012.09.040).
± gives the expanded uncertainty stated by the source.

Test: of the first substance listed, at infinite dilution; xn = mol fraction of the nth substance listed
Conditions: 100 kPa, Liquid, isoperibol

partial molar enthalpy (298.15 K, x1 = 0) | partial molar enthalpy (318.15 K, x1 = 0) | partial molar enthalpy (298.15 K, x2 = 1) | partial molar enthalpy (318.15 K, x2 = 1) | Structure (SMILES)
1.35 ± 0.0263 kcal/mol | 1.22 ± 0.0239 kcal/mol |  |  | CN(C)C=O [dimethylformamide] + CCCCCCCCO
 |  | 1.55 ± 0.0311 kcal/mol | 1.52 ± 0.0311 kcal/mol | CCCCCCCCO [octan-1-ol] + CN(C)C=O
